This is an account of results in article PMC10813393 (Biomolecules, 2023).

Where two headings read alike, the source gives them in different places.

Experiment [1] has as its system α-SARS-CoV-2 spike pseudotyped virus particles. Type of experiment: cell-based. The settings on record: luciferase 72 h post-transduction.
The test system of experiment [2] is o-SARS-CoV-2 spike pseudotyped virus particles (BA.2 lineage). Type of experiment: cell-based. The settings on record: luciferase 72 h post-transduction.
Where [3] appears, read: cell-pretreatment protocol: VERO cells with FA 20 μM or L7OG 5 μM for 2 h.

For `O=C(O)[C@H]1O[C@@H](Oc2cc(O)c3c(=O)cc(-c4ccc(O)c(O)c4)oc3c2)[C@H](O)[C@@H](O)[C@@H]1O` [Compound L7OG, luteolin-7-O-glucuronide], the “entry of α-SARS-CoV-2 pseudovirus (in words)” value in experiment [1] (setting [3]) is given as “neither L7OG nor FA inhibited the entry”. The “entry of o-SARS-CoV-2 pseudovirus (in words)” value in experiment [2] (setting [3]) is listed as “neither L7OG nor FA inhibited the entry”.

On to `Nc1nc(=O)c2nc(CNc3ccc(C(=O)N[C@@H](CCC(=O)O)C(=O)O)cc3)cnc2[nH]1` [FA, folic acid, reference compound], for which the “entry of α-SARS-CoV-2 pseudovirus (in words)” value in experiment [1] ([…], VERO cells) was “blocked the entry”; in experiment [1] (setting [3]), “neither L7OG nor FA inhibited the entry”. The “entry of o-SARS-CoV-2 pseudovirus (in words)” value in experiment [2] ([…], VERO cells) is given as “blocked the entry”; in experiment [2] (setting [3]), “neither L7OG nor FA inhibited the entry”.
